Laboratory results published in patent US12622901B2, “Compounds for tau protein degradation” (Dana-Farber Cancer Institute, Inc., priority 2017, dated 2026).
“Also recorded” adds a separate entry of the source.

Columns and labels:
[1] = Dose formulation in 20% PEG400 in water; format: physicochemical; settings: 5.00 mg/mL in 20% PEG400 in water
Experimental: (§1) For intraperitoneal (IP) dosing, the dose formulation was administered with a dose volume determined by the animals' body weight collected on the morning of dosing day.

[2] = Tolerability monitoring of mice for up to 24 hours; format: in vivo; settings: male CD-1 mice, 30 mg/kg intraperitoneal, monitored up to 24 hours
Experimental: (§2) To determine whether the compounds of the present disclosure are capable of crossing the blood brain barrier (BBB), a key property for use of these compounds as CNS therapeutics, compound 3 was administered to mice in a pharmacokinetic study of plasma and brain tissue. A stable formulation compatible with chronic administration was prepared prior to administration, and analytical methods for measuring concentration of the compound in plasma and brain tissue were developed. Mice were additionally monitored for tolerability for up to 24 hours.

tau protein = target: T1, tau protein (Homo sapiens, UniProt P10636, A469T); assay: Tau degradation assay (western blot) in human tau-A152T neurons; format: cell-based; settings: 6-week differentiated A152T neurons; treatment for 24 hours; FIG. 6
T1 construct: cultured human differentiated frontotemporal lobar dementia (FTD) neurons; endogenous in cells; host or cells: human differentiated FTD neurons, tau-A152T (line 19-5-RC6)
T1 sequence (P10636 1-441 isoform P10636-8 A152T): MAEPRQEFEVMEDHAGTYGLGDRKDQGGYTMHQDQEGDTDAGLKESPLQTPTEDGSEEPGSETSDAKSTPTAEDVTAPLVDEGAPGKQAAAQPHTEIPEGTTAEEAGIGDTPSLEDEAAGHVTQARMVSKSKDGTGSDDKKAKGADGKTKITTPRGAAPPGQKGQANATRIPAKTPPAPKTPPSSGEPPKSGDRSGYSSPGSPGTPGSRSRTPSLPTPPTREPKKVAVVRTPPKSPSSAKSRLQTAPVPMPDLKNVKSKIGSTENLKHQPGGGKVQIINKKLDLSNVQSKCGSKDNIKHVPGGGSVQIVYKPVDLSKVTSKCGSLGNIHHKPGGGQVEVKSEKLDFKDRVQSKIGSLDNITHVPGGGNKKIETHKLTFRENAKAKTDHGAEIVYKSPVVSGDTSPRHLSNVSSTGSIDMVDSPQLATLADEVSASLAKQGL
Experimental: Example compounds 1-12 were evaluated for their ability to degrade tau protein in cultured human differentiated frontotemporal lobar dementia (FTD) neurons. […] For each condition, 1 well of differentiated neuronal cells (6 well-plate) was washed and collected in PBS, pelleted and lysed in RIPA buffer (Boston Bio-Products) with 2% SDS (Sigma), protease inhibitors (Roche Complete Mini tablets), and phosphatase inhibitors (Sigma), followed by sonication in a water sonicator (Bransonic Ultrasonic Baths, Thomas Scientific) for 5 min, and centrifugation at 20,000 g for 15 min. Supernatants were transferred to new tubes, total protein concentration was quantified with the Pierce BCA Protein Assay Kit (Thermo), and SDS-PAGE gels were loaded with 10 μg total protein per well (pre-boiled samples). Western blots were performed with the Novex NuPAGE SDS-PAGE Gel System (Invitrogen). All samples were resolved in 7% Tris-Acetate gels with Tris-Acetate running buffer (Invitrogen). Blots were probed with antibodies against total tau (TAU5) and phosphosrylated tau (Ser396), along with β-actin as a loading control; followed by corresponding HRP-linked secondary antibodies (Cell Signaling Technology), and SuperSignal West Pico Chemiluminescent Substrate (Thermo) detection. Membranes were exposed to autoradiographic film (LabScientific) and films were scanned using an Epson Perfection V800 Photo Scanner. Protein band intensities (pixel mean intensity) were quantified using Adobe Photoshop CS5 Histogram function. Whereas the vehicle alone (DMSO) had no effect on tau, varying degrading activity was observed amongst the compounds, however with overall similar relative levels of degrading activity between tau-A152T neurons and tau-P301L neurons. Compounds were added at the doses indicated of either 0.1, 1, 5, or 10 μM.
Four-week differentiated neurons, both non-mutant (8330-8) and tau-A152T (19-5-RC6) were employed. The neurons were treated with T807 for 24 hours (at 10 μg/mL=59.4 μM). One well of differentiated neuronal cells (6 well-plate, treated or untreated) was washed and collected in PBS, pelleted and directly lysed in 200 μL of Sample Buffer (New England Biolabs) supplemented with 3X DTT, boiled for 15 min and 10 μL of each lysate was run by SDS-PAGE in a 4-12% Bis-Tris Gel, with MOPS running buffer. Blots were probed with antibodies to total tau (DA9) and phosphorylated tau (Ser396, PHF1, AT8) along with GAPDH as a loading control.
Example compounds 2-5 were reevaluated for their ability to degrade tau protein in human FTD neurons as well as evaluate their effect on E3 ubiquitin ligases CRBN, VHL, and CHIP (FIG. 4A-E). For each control and treatment, 1 well of differentiated neuronal cells (6 well-plate) was washed and collected in PBS, pelleted and lysed in RIPA buffer (Boston Bio-Products) with 2% SDS (Sigma), protease inhibitors (Roche Complete Mini tablets), and phosphatase inhibitors (Sigma), followed by sonication in a water sonicator (Bransonic Ultrasonic Baths, Thomas Scientific) for 5 min, and centrifugation at 20,000 g for 15 min. Supernatants were transferred to new tubes, total protein concentration was quantified with the Pierce BCA Protein Assay Kit (Thermo), and SDS-PAGE gels were loaded with 10 μg total protein per well (pre-boiled samples). […] Protein band intensities (pixel mean intensity) were quantified using Adobe Photoshop CS5 Histogram function. […]

A152T neurons = assay: Neuronal viability / rescue of stress vulnerability to β-amyloid (1-42) peptide; settings: A152T neurons differentiated 8 weeks, FIG. 7
[3] = In vivo pharmacokinetic study of plasma and brain tissue in mice; settings: male CD-1 mice, 30 mg/kg intraperitoneal
Experimental: as §2
Animal Husbandry: Male CD-1 mice were group housed during a 2-3 day acclimation prior to the study at an animal room environment with a controlled environment (target conditions: temperature 18-26° C., relative humidity 30-70%, 12 hours artificial light and 12 hours dark). All animals had access to Certified Rodent Diet and water ad libitum.
as §1
Sample Collection & Processing:
Blood Samples: A blood sample (about 0.03 mL per time point) was collected from each mouse into polypropylene tubes at each timepoint. All blood samples were transferred into pre-chilled commercial EDTA-K2 tubes or pre-chilled plastic microcentrifuge tubes containing 2 μL of EDTA-K2 as anti-coagulant and placed on wet ice until centrifugation. Each collected blood sample was centrifuged for 15 minutes at 4° C. and 3000 g for plasma collection. Plasma from each mouse was transferred into a pre-labeled polypropylene tube in dry ice at each time point. After terminal collection, all plasmas were stored at approximately −80° C. until bioanalysis.
Brain Samples: Whole brain was dissected at each designated time point and rinsed twice cold in deionized water before processing. They were then blotted on filter paper, weighed and homogenized with 5-fold of cold 15 mM PBS/MeOH (V:V, 2:1) using mechanical method. The samples were kept with ice water when homogenizing, and further stored at −80° C. until bioanalysis.
Bioanalytical Method Development: A LC-MS/MS method was developed and used for the quantitative determination of test compound concentration in blood and brain with a calibration curve applied to determine the limits of quantification.
In Vivo Sample Analysis: Plasma and brain concentration versus time data along with C^max, Tmax, T1/2, and AUC(0-t) was analyzed by non-compartmental approaches using the Phoenix WinNonlin 6.3 software program.

O=C(CCc1ccc2c(c1)[nH]c1ccncc12)NCCOCCOCCNc1cccc2c1C(=O)N(C1CCC(=O)NC1=O)C2=O (stereo not shown) [Compound 3, N-(2-(2-(2-((2-(2,6-dioxopiperidin-3-yl)-1,3-dioxoisoindolin-4-yl)amino)ethoxy)ethoxy)ethyl)-3-(5H-pyrido[4,3-b]indol-7-yl)propanamide]
appearance/stability of dose formulation [1]: clear, stable solution
tolerability / adverse effects [2]: no adverse effects were observed; also recorded: well tolerated
dose-dependency of effect on tau (tau protein): dose dependent effect on tau
rescue of stress vulnerability (A152T neurons; 8 h pre-treatment, then 10 μM β-amyloid (1-42) peptide for 16 h): effective at rescuing stress vulnerability
effect on neuronal viability (A152T neurons; compound alone): no effect on neuronal viability
brain penetration / crossing the blood-brain barrier ([3]; 20% PEG400/water, n=3 per group, 30 mg/kg): capable of brain penetration; also recorded: capable of crossing the blood-brain barrier
AUC0-last, Mean Brain ([3]; brain): 74.3 ng·h/mL
Cmax, Mean Brain ([3]; brain): 56.4 ng/mL
Tmax, Mean Brain ([3]; brain): 30 min
AUC0-last, Mean Plasma ([3]; plasma): 6938 ng·h/mL
Cmax, Mean Plasma ([3]; plasma): 4640 ng/mL
T1/2, Mean Plasma ([3]; plasma): 7.23 h
Tmax, Mean Plasma ([3]; plasma): 1.00 h
